Measured values as given in paper PMC2957683, “IKKβ inhibitor identification: a multi-filter driven novel scaffold” (2010).

Molecular target: T1, IKKβ (Homo sapiens, UniProt O14920)
T1 construct: gene IKBKB
T1 sequence (O14920 1-756): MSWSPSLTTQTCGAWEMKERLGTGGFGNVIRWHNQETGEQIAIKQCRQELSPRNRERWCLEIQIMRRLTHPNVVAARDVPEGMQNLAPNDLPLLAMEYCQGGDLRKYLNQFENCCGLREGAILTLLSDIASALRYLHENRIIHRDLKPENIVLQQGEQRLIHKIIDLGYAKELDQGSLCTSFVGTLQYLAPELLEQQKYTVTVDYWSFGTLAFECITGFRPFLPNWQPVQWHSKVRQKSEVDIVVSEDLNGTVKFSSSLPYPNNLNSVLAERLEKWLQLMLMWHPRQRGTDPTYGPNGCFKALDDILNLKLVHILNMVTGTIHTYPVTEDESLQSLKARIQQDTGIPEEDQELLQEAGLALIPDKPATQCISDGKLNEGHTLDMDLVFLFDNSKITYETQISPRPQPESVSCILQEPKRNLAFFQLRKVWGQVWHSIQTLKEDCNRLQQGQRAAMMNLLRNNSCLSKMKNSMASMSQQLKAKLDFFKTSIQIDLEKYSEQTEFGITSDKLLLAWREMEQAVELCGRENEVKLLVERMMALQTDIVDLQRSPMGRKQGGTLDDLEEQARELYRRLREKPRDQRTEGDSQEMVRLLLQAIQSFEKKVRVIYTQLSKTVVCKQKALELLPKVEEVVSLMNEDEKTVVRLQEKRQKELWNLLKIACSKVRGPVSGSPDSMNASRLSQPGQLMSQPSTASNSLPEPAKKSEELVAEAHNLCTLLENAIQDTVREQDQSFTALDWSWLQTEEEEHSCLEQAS
Assay: IMAP TR-FRET kinase assay with IKKβ enzyme (Millipore), IκBα-derived peptide substrate, […] ATP
Type: biochemical

| IC50 | SMILES |
| --- | --- |
| 0.17 µM | N#Cc1c(C2CCCNC2)cc(-c2ccccc2O)nc1N (centres unmarked) [Bayer-5a] |
| 20.3 µM | COc1ccc(-c2nc3c(c(SCC(=O)Nc4cccc(O)c4)n2)Cc2c(CO)cnc(C)c2O3)cc1 [VH01] |
